For orientation: IC50 means the point on the concentration scale where inhibition reaches its midpoint. As usually defined, the melting point is the temperature of the solid-liquid transition.

Counter-ions that a name gives are not always drawn. Like-named read-outs stand apart in the source and are kept apart here.

The source of these data is patent publication US6710047B2, “Phthalazines with angiogenesis inhibiting activity” (Novartis AG, priority 1997, dated 2004).

The target of data set [1] is PDGF-receptor kinase. Put plainly: Inhibition of PDGF-receptor kinase (method of Trinks et al.). It counts as biochemical. As to the method:
An inhibitory effect can also be found especially on PDGF-receptor kinase, which is determined according to the method described by Trinks et al. (see J. Med. Chem. 37(7): 1015-27 [1994]). Inhibitory activity is shown here in the micromolar range using a compound of formula I (or an N-oxide thereof); […]

Data set [2] concerns the target T1, Flt-1 VEGF-receptor tyrosine kinase (Homo sapiens, UniProt P17948).
T1 sequence (P17948 827-1158 limits assumed): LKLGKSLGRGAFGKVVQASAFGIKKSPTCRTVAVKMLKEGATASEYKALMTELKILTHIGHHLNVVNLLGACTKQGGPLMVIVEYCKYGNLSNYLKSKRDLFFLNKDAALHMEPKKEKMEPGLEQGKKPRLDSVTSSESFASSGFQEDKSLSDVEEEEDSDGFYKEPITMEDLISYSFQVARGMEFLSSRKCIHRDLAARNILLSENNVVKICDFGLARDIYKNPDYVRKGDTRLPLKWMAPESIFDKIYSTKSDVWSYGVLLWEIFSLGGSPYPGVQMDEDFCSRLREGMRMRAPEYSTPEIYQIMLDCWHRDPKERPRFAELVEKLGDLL
Description: Test for activity against Flt-1 VEGF-receptor tyrosine kinase.
Description: Test for activity against VEGF-receptor tyrosine kinase. The test is conducted using Flt-1 VEGF-receptor tyrosine kinase. […] The reaction is then ended by the addition of 10 μl 0.25 M ethylenediaminetetraacetate (EDTA) pH 7. Using a multichannel dispenser (LAB SYSTEMS, USA), an aliquot of 20 μl is applied to a PVDF (=polyvinyl difluoride) Immobilon P membrane (Millipore, USA), incorporating a Millipore microtiter filter manifold, and connected to a vacuum.
The test is conducted using Flt-1 VEGF-receptor tyrosine kinase, as described hereinabove.

For `Clc1ccc(Nc2nnc(Cc3ccncc3)c3ccccc23)cc1` [Example 1, 1-(4-Chloroanilino)-4-(4-pyridylmethyl)phthalazine dihydrochloride], in data set [1], the concentration for half-maximal inhibition (IC50) was approximately 1000 nM.

Turning to `CCc1ccc(Nc2nnc(Cc3ccncc3)c3ccccc23)cc1` [Example 44A, 1-(4-Ethylanilino)-4-(4-pyridylmethyl)phthalazine], the melting point lay in the range of 163 to 164 °C. Further, inhibition in data set [2] was half-maximal at 277 nM (IC50).

In turn, `CCCc1ccc(Nc2nnc(Cc3ccncc3)c3ccccc23)cc1` [Example 44B, 1-(4-Propylanilino)-4-(4-pyridylmethyl)phthalazine] showed a melting point of 180 to 181 °C. Further, half-maximal inhibition in data set [2] (IC50) required 234 nM.

For the compound `Cc1ccc(Nc2nnc(Cc3ccncc3)c3ccccc23)cc1F` [Example 44C, 1-(3-Fluoro-4-methylanilino)-4-(4-pyridylmethyl)phthalazine], the melting point is 210 to 212 °C. Further, the concentration for half-maximal inhibition (IC50) in data set [2] was determined as 42 nM.

`Fc1cc(Cl)ccc1Nc1nnc(Cc2ccncc2)c2ccccc12` [Example 44D, 1-(4-Chloro-2-fluoroanilino)-4-(4-pyridylmethyl)phthalazine] gave a melting point of 157 to 159 °C. The IC50 in data set [2] was 317 nM.

For `CCOc1ccc(Nc2nnc(Cc3ccncc3)c3ccccc23)cc1` [Example 44E, 1-(4-Ethoxyanilino)-4-(4-pyridylmethyl)phthalazine], the melting point was in the range of 223 to 224 °C. In addition, 490 nM corresponded to half-maximal inhibition in data set [2] (IC50).

As for `Cc1cc(Cc2nnc(Nc3ccc(Cl)cc3)c3ccccc23)ccn1` [Example 44F, 1-(4-Chloroanilino)-4-[(2-methyl-4-pyridyl)methyl]phthalazine], the melting point is 158 to 159 °C. The compound also gave an IC50 in data set [2] (kinase domain of Flt-1, poly(Glu,Tyr) 4:1, 8 μM [33P]-ATP, 15 minutes at room temperature) of 624 nM.

In turn, `Clc1ccc(Nc2nnc(Cc3ccncc3)c3c2CCCC3)cc1` [Example 44H, 1-(4-Chloroanilino) 4-(4-pyridylmethyl)-5,6,7,8-tetrahydrophthalazine] registered a melting point of 181 to 183 °C. The compound also yielded a half-maximal inhibitory concentration (IC50) in data set [2] of 11400 nM.

`Cc1ccc(Nc2nnc(Cc3ccncc3)c3ccccc23)cc1C` [Example 45] came in with a melting point of 180 to 181 °C. For the same compound, half-maximal inhibition in data set [2] (IC50) was put at 345 nM.

`Cc1cc(C)cc(Nc2nnc(Cc3ccncc3)c3ccccc23)c1` [Example 46, 1-(3,5-Dimethylanilino)-4-(4-pyridylmethyl)phthalazine] came in with a melting point of 174 to 175 °C. The IC50 in data set [2] is 349 nM.

The compound `Clc1ccc(Nc2nnc(OCc3ccncc3)c3ccccc23)cc1` [Example 50, 1-(4-Chloroanilino)-4-(4-pyridylmethoxy)phthalazine] gave a melting point of 139 to 141 °C. The compound further displayed a 50% inhibitory concentration (IC50) in data set [2] of 195 nM.

`Oc1cccc(Oc2nnc(Cc3ccncc3)c3ccccc23)c1` [Example 56, 1-(3-Hydroxyphenoxy)-4-(4-pyridylmethyl)phthalazine] showed a melting point of 206 to 207 °C. The compound also displayed a concentration for half-maximal inhibition (IC50) in data set [2] of 1000 nM.

For `c1ccc2c(NC3CCCCC3)nnc(Cc3ccncc3)c2c1` [Example 57, 1-Cyclohexylamino-4-(4-pyridylmethyl)phthalazine], the melting point lay in the range of 137 to 139 °C. For the same compound, in data set [2], the half-inhibitory concentration (IC50) was 16000 nM.

`c1ccc2c(NC3CCCC3)nnc(Cc3ccncc3)c2c1` [Example 58, 1-Cyclopentylamino-4-(4-pyridylmethyl)phthalazine] came in with a melting point of 163 to 165 °C. The compound also had a half-maximal inhibitory concentration (IC50) in data set [2] of 7300 nM.

The compound `Clc1ccc(Nc2nnc(Cc3ccncn3)c3ccccc23)cc1` [Example 66, 1-(4-Chloroanilino)-4-(4-pyrimidinylmethyl)phthalazine] showed a melting point of 174 to 176 °C. Further, in data set [2], the IC50 came to 2400 nM.

Turning to `CSc1cccc(Nc2nnc(Cc3ccncc3)c3ccccc23)c1` [Example 67D], the melting point is 148 to 149 °C. Further, in data set [2], half-maximal inhibition (IC50) was put at 401 nM.

Compound `CCc1cccc(Nc2nnc(Cc3ccncc3)c3ccccc23)c1` [Example 67E] registered a melting point of 143 to 144 °C. Moreover, in data set [2], the IC50 is 440 nM.

Compound `CCOc1cccc(Nc2nnc(Cc3ccncc3)c3ccccc23)c1` [Example 67F] yielded a melting point of 193 to 195 °C. Further, the midpoint of inhibition in data set [2], the IC50, lay at 1200 nM.

Regarding `FC(F)(F)Oc1cccc(Nc2nnc(Cc3ccncc3)c3ccccc23)c1` [Example 67H], the melting point lay within 176 to 178 °C. This compound displayed a concentration for half-maximal inhibition (IC50) in data set [2] of 615 nM.

In turn, `CC(=O)c1ccc(Nc2nnc(Cc3ccncc3)c3ccccc23)cc1O` [Example 69] registered a melting point of 234 to 236 °C. It took 742 nM to reach half-maximal inhibition in data set [2] (IC50).

`Clc1ccc(Oc2nnc(Cc3ccncc3)c3ccccc23)cc1` [Example 72B] registered a melting point of 207 to 208 °C. Moreover, the concentration for half-maximal inhibition (IC50) in data set [2] is 284 nM.

In turn, `Cc1ccc(Oc2nnc(Cc3ccncc3)c3ccccc23)cc1` [Example 72C] registered a melting point of 175 to 176 °C. Besides, half-maximal inhibition in data set [2] (IC50) required 747 nM.

As for `COc1ccc(Oc2nnc(Cc3ccncc3)c3ccccc23)cc1` [Example 72D], the melting point lay in the range of 194 to 196 °C. In data set [2], this compound came in with an IC50 of 593 nM.

Take `Clc1ccc(Sc2nnc(Cc3ccncc3)c3ccccc23)cc1` [Example 72E]: the melting point lay in the range of 204 to 206 °C. In data set [2], this compound came in with an IC50 of 1200 nM.

On to `Clc1ccc(Nc2nnc(Cc3ccncc3)c3ncccc23)cc1` [Example 73, 5-(4-Chloroanilino)-8-(4-pyridylmethyl)pyrido[2,3-d]pyridazine], for which the melting point fell in the range of 220 to 222 °C. In data set [2], this compound registered an IC50 of 397 nM.

Take `Clc1ccc(Nc2nnc(Cc3ccncc3)c3cccnc23)cc1` [Example 74, 8-(4-Chloroanilino)-5-(4-pyridylmethyl)pyrido[2,3-d]pyridazine]: the melting point fell in the range of 196 to 197 °C. This compound showed a 50% inhibitory concentration (IC50) in data set [2] of 1000 nM.

`Clc1ccc(Nc2nnc(Cc3ccncc3)c3cnccc23)cc1` [Example 75, 1-(4-Chloroanilino)-4-(4-pyridylmethyl)pyrido[3,4-d]pyridazine] came in with a melting point of 227 to 228 °C. Further, the half-maximal inhibitory concentration (IC50) in data set [2] stood at 1000 nM.

For `Clc1ccc(Nc2nnc(Cc3ccncc3)c3ccncc23)cc1` [Example 76, 4-(4-Chloroanilino)-1-(4-pyridylmethyl)pyrido[3,4-d]pyridazine], the melting point lay within 220 to 221 °C. The IC50 in data set [2] came to 3200 nM.
